Laboratory results reported in patent US9776997B2, “3-aryl-substituted imidazo[1,2-A]pyridines and their use” (Bayer Pharma Aktiengesellschaft, priority 2013, dated 2017).

Target: T1, recombinant guanylate cyclase reporter cell line (Rattus norvegicus, UniProt P19686+P20595)
T1 construct: expressed in transfected cells; host or cells: recombinant reporter cell line
T1 sequence (P19686 1-690): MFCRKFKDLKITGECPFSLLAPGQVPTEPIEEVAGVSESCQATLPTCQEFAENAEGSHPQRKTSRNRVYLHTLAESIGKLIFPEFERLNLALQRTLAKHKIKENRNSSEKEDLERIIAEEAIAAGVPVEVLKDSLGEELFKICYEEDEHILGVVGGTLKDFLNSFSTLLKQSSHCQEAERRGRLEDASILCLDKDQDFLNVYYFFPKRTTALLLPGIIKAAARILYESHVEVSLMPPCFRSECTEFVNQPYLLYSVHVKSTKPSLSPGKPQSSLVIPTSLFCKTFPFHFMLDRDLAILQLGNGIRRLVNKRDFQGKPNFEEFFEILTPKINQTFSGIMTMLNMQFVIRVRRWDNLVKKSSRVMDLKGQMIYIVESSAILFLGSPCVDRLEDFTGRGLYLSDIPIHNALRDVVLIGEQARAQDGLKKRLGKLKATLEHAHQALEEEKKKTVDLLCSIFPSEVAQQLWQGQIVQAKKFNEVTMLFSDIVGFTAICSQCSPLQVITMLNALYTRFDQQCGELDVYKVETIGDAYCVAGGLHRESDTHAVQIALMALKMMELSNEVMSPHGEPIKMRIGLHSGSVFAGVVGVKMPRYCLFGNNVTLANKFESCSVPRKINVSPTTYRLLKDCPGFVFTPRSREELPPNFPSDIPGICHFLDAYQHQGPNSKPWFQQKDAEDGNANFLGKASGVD
T1 sequence (P20595 1-619): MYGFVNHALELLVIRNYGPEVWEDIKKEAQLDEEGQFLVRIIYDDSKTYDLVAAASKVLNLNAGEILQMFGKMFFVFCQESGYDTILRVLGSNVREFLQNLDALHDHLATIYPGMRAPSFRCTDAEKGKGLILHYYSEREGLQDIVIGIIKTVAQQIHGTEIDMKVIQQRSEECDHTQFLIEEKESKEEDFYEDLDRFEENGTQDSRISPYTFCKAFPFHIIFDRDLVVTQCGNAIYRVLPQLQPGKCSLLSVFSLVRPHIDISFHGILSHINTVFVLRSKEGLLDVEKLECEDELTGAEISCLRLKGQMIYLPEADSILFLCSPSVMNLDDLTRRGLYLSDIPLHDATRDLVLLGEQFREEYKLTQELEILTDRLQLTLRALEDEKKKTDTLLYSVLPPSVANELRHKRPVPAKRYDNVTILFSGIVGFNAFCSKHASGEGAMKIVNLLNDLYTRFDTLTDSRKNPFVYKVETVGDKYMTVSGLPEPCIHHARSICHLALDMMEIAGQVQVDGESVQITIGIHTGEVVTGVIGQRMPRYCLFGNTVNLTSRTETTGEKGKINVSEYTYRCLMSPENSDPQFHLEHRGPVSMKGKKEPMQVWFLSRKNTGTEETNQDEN
Experiment: Effect on a recombinant guanylate cyclase reporter cell line
Type: cell-based
Conditions: MEC = minimum effective concentration; in some cases mean values for individual determinations
Procedure: B-2. Effect on a Recombinant Guanylate Cyclase Reporter Cell Line
The cellular effect of the inventive compounds is determined using a recombinant guanylate cyclase reporter cell line, as described in F. Wunder et al., Anal. Biochem. 339, 104-112 (2005).
Representative MEC values (MEC=minimum effective concentration) for the inventive compounds are shown in the table below (in some cases as mean values for individual determinations): […]

MEC [µM] | SMILES
1.0 | Cc1nc2c(OCc3c(F)cccc3F)cccn2c1-c1cn[nH]n1 [Example 134, 8-[(2,6-Difluorobenzyl)oxy]-2-methyl-3-(2H-1,2,3-triazol-4-yl)imidazo[1,2-a]pyridine]
3.0 | Cc1ccc(-c2c(C)nc3c(OCc4c(F)cccc4F)cc(C)cn23)cc1 [Example 135, 8-[(2,6-Difluorobenzyl)oxy]-2,6-dimethyl-3-(4-methylphenyl)imidazo[1,2-a]pyridine]
3.0 | Cc1cc(OCc2c(F)cccc2F)c2nc(C)c(-c3ncc(C)o3)n2c1 [Example 137, 8-[(2,6-Difluorobenzyl)oxy]-2,6-dimethyl-3-(5-methyl-1,3-oxazol-2-yl)imidazo[1,2-a]pyridine]
3.0 | CCOC(=O)c1ncc(-c2c(C)nc3c(OCc4c(F)cccc4F)cc(C)cn23)s1 [Example 138, Ethyl 5-{8-[(2,6-difluorobenzyl)oxy]-2,6-dimethylimidazo[1,2-a]pyridin-3-yl}-1,3-thiazole-2-carboxylate]
0.1 | CCOc1cc(-c2c(C)nc3c(OCc4c(F)cccc4F)cc(C)cn23)sc1N [Example 139, 5-{8-[(2,6-Difluorobenzyl)oxy]-2,6-dimethylimidazo[1,2-a]pyridin-3-yl}-3-ethoxythiophen-2-amine]
0.1 | Cc1cc(OCc2c(F)cccc2F)c2nc(C)c(-c3cccnc3)n2c1 [Example 140, 8-[(2,6-Difluorobenzyl)oxy]-2,6-dimethyl-3-(pyridin-3-yl)imidazo[1,2-a]pyridine]
1.0 | CCOC(=O)c1cc(-c2c(C)nc3c(OCc4c(F)cccc4F)cc(C)cn23)on1 [Example 141, Ethyl 5-{8-[(2,6-difluorobenzyl)oxy]-2,6-dimethylimidazo[1,2-a]pyridin-3-yl}-1,2-oxazole-3-carboxylate]
0.1 | Cc1cc(OCc2c(F)cccc2F)c2nc(C)c(-c3cc(CO)no3)n2c1 [Example 142, (5-{8-[(2,6-Difluorobenzyl)oxy]-2,6-dimethylimidazo[1,2-a]pyridin-3-yl}-1,2-oxazol-3-yl)methanol]
1.0 | Cc1cc(OCc2c(F)cccc2F)c2nc(C)c(-c3cc(CC(C)(C)N)n[nH]3)n2c1 [Example 143, 1-(3-{8-[(2,6-Difluorobenzyl)oxy]-2,6-dimethylimidazo[1,2-a]pyridin-3-yl}-1H-pyrazol-5-yl)-2-methylpropan-2-amine]
0.3 | Cc1cc(OCc2c(F)cccc2F)c2nc(C)c(-c3cc(CC(C)(C)N)no3)n2c1 [Example 144, 1-(5-{8-[(2,6-Difluorobenzyl)oxy]-2,6-dimethylimidazo[1,2-a]pyridin-3-yl}-1,2-oxazol-3-yl)-2-methylpropan-2-amine]
